Test results published in paper PMC7226839, “Modulation of STAT3 Signaling, Cell Redox Defenses and Cell Cycle Checkpoints by β-Caryophyllene in Cholangiocarcinoma Cells: Possible Mechanisms Accounting for Doxorubicin Chemosensitization and Chemoprevention” (Cells, 2020).
Structures can show the parent of a compound that is named as a salt. Where two headings read alike, the source gives them in different places.

Columns and labels:
[1] = system: Mz-ChA-1 cholangiocarcinoma cells; assay: Annexin-V-FITC fluorescence microscopy, semiquantitative; format: cell-based, human; settings: Mz-ChA-1, 24 h, β-caryophyllene 50 µM, doxorubicin 20 µM
Protocol: (§1) Apoptosis extent was evaluated by Annexin-V staining (Annexin V Apoptosis detection kit, Santa Cruz Biotechnology, DBA, Milan, Italy), which is known to specifically binds phosphatidylserine, a […] which is normally embedded in the inner leaflet of plasma membrane and externalized during apoptosis, as a result of the membrane changes. Therefore, apoptotic cells can be directly detected through their staining with the fluorochrome-conjugated Annexin V. The analysis was performed by both fluorescence microscopy and flow cytometry in order to both visualize the event and to achieve a quick and accurate quantification of apoptotic cells.

[2] = system: H69 noncancerous cholangiocytes; assay: Cell cycle analysis (PI flow cytometry); format: cell-based; settings: H69, 24 h
Protocol: Analysis of cell cycle progression was performed by applying a one parameter flow cytometric method, in which cell cycle distribution was evaluated on the basis of DNA content. Briefly, after treatments, the harvested cells (about 1 × 10^6 cells) were fixed in ice cold 70% ethanol and stored for at least 2 h at 4 °C. Thereafter, the ethanol-suspended cells were separated by centrifugation, rinsed in PBS, then resuspended in a propidium iodide (PI) staining solution, containing 0.1% v/v Triton X-100, 10 μg/mL PI and 100 μg/mL DNase-free RNase A in PBS and stored at 4 °C in the dark for at least 30 min. For each sample, the mean fluorescence of PI (maximum excitation of PI bound to DNA at 536 nm; emission at 617 nm) in 50,000 cells was measured using a BD Accuri^TM C6 flow cytometer FL2 channel (BD Biosciences, Milan, Italy) and deconvolution of the DNA content frequency histograms, to estimate the proportions of cells in the respective phases of the cycle, was made by Modfit 4.1 software (Verity Software House, Topsham, ME, USA).

[3] = system: ROS in H69 noncancerous cholangiocytes; assay: Intracellular ROS determination (DCFH-DA); format: cell-based; settings: H69, 24 h, β-caryophyllene 50 µM, doxorubicin 20 µM
Protocol: To perform the assay, the cells, seeded in 6-well plates (1 × 10^6 cells/well), were treated with the tested substances (β-caryophyllene, 50 µM; doxorubicin, 20 µM) for the required time exposure, then the ROS levels were measured in the pellets by the 2,7-dichlorofluorescein diacetate assay (DCFH-DA), as previously reported. […] In each experiment, a vehicle control, corresponding to a basal ROS level, were included too. For all the treatments, the mean DCF fluorescence of 50,000 cells was determined by a BD Accuri^TM C6 Software version 1.0.264.21 (BD Biosciences, Milan, Italy).

[4] = system: γH2AX in H69 noncancerous cholangiocytes; assay: Western blotting of phosphorylated H2AX (Ser139); format: cell-based; settings: for increase of γH2AX with respect to control: doxorubicin 20 µM
Protocol: (§2) To perform the analysis, the cells were seeded in 6-well plates, then subjected to the treatment with β-caryophyllene (50 µM) and doxorubicin (20 µM), alone and in combination, for the required time exposure, then harvested by centrifugation and washed in PBS. A lysis buffer, containing SDS (2% w/w), Tris-hydrochloride (20 mM; pH 7.4), urea (2 M), glycerol (10% w/w), sodium orthovanadate (2 mM), DTT (10 mM) and a protease inhibitors cocktail (1:100 dilution) was used to achieve the cell protein separation. The separated proteins were resolved by SDS-PAGE 10% TGX FastCast™ Acrylamide gel (BioRad, Segrate, Italy) and transferred on PVDF membranes (BioRad, Segrate, Italy) by using a Trans-Blot® Turbo™ Transfer System (BioRad, Segrate, Italy). The membranes were blocked with a 0.2% w/v I-block (Thermo Fisher Scientific, Rodano, Italy) in Tris-buffered saline containing 0.05% Tween-20 (TBS-T), then stained with the desired primary antibodies. […] After rinsing three times in TBS-T to remove unbound primary antibody, the membranes were incubated for an additional hour with the appropriate horseradish peroxidase- or alkaline phosphatase-conjugated secondary antibody (Jackson ImmunoResearch, Pero, Italy). […] Each experiment was performed at least in three replicates.

[5] = system: Mz-ChA-1 cholangiocarcinoma cells
Protocol: To perform the assay, the cells were grown for 24 h into 96-well microplates (2 × 10^4 cells/well), then treated with the test substances and incubated according to the applied protocol schedule [26]. At the end of incubation, the cytotoxicity was measured by the 3-[4,5-dimethylthiazol-2-yl] -2,5-diphenyl tetrazolium bromide (MTT) assay, using an Epoch Microplate Spectrophotometer (BioTek, AHSI, Milan Italy). At least three biologic replicates, in which each concentration was tested in triplicate, were made. Comparing the number of viable cells in each treatment respect to the vehicle control allows to measure a cell viability reduction. The effect of the treatment was considered as cytotoxic when at least a 30% lowering of cell viability occurred [59].
In the single long-term schedule, confluence cells were exposed to the test substances for 24 h and 72 h (Figure S1), then the cytotoxicity was measured by the MTT assay. Under the metronomic treatment, the cells were subjected to a short and/or repeated exposure of 2 h to the test substances (Figure S2), as follow: 1) single treatment, the cells were treated for 2 h, then washed and incubated for 72 h; 2) two-repeated treatments, the cells were exposed to the test substances for 2 h, then washed and incubated for functional recovery for further 2 h. After recovering, the cells were further treated with the test substances for 2 h, washed and incubated for 72 h. Finally, the cytotoxicity was measured by the MTT assay as described above.
The type of interaction between β-caryophyllene and doxorubicin, i.e., synergy, additivity or antagonism, was evaluated by measuring three parameters: reversal ratio value (RR), combination index (CI) and isobolographic analysis (IB) [24].
RR represents the cytotoxicity enhancement ratio and allows to quantify the efficacy increase of a drug (A) in the presence of a chemosensitizing agent (B), by relating the IC50 of A alone (CA) and that of IC50 of its combination with B (CA+B).
CI gives a quantitative measure of the interaction and is calculated as follow: (CA,X/ICX,A) + (CB, X/ICX,B), in which CA,X and CB,X are the concentrations of A and B at the IC50 value of their combination, whereas ICX,A and ICX,B are the IC50 values of the substances alone. When the CI value was equal to, less or higher than 1, the interaction between test substances was evaluated as additivity, synergism and antagonism, respectively.
The isobolographic analysis, displaying the extent of the interaction between drug A and the potential chemosensitizer B, was obtained by a two-coordinate plot, wherein the IC50 concentrations of A and B were plotted on the x and y axes, corresponding to (CA, 0) and (C0, B), respectively. The substance concentrations used in the combination (CA+B) were placed in the same plot. A nonlinear regression analysis was carried out by GraphPad Prism™ 6.00 software, in order to connect the IC50 value of each drug alone and that of the combination, whereas the line connecting CA and CB represented an additive interaction. A synergism between A and B occurred when CA+B were located below the line, while the interaction was antagonistic when the values were above the line [60].

[6] = system: H69 noncancerous cholangiocytes; assay: Annexin-V-Cy3/CFDA flow cytometry (apoptotic and viable cells); format: cell-based; settings: for inhibition of viable cells (CF fluorescence): H69, 2 h and 24 h, maximum
Protocol: as §1
For flow cytometry analysis, the cells (1 × 10^6 cells) were grown in 6-well plates, treated with β-caryophyllene (50 µM) and doxorubicin (20 µM), alone and in combination for the required time exposure, then collected by trypsinization and resuspended in PBS in the presence of the fluorochrome Annexin-V-Cy3 (4 μg/mL in cell suspension). In order to detect viable cells, the nonfluorescent probe carboxyfluorescein diacetate (CFDA; 2 μg/mL in cell suspension), hydrolyzed in living cells by esterases to its fluorescent carboxyfluorescein metabolite (CF), was included too. For each sample, the mean fluorescence of Annexin-V-Cy3 (excitation/emission at 543/570 nm, respectively) and CF (excitation/emission at 492/514 nm, respectively) in 50,000 cells was measured using a BD Accuri^TM C6 flow cytometer, FL-2 and FL-1 channels respectively (BD Biosciences, Milan, Italy). Although standard flow cytometry apoptosis assays use Annexin V-FITC, we chosen the conjugate with Cy3 in order to avoid the overlapping in the excitation wavelength of annexin V-FITC and CF, which could interfere with the analysis. Cells undergoing apoptosis were also sorted by their typical forward- and side scatter (FSC-SSC) pattern, i.e., increased SSC and decreased FSC, respect to the viable cells. Multiparameter analysis and gating of forward and side scatter as well as fluorescence detection were performed using a BD Accuri^TM C6 Software version 1.0.264.21 (BD Biosciences, Milan, Italy).

[7] = system: phospho(Tyr705)-STAT3 in H69 cholangiocytes; assay: Western blotting of phospho(Tyr705)-STAT3; format: cell-based; settings: for enhancement of basal phospho(Tyr705)-STAT3 expression: doxorubicin 20 µM
Protocol: as §2

[8] = system: H69 noncancerous cholangiocytes; assay: Annexin-V-FITC fluorescence microscopy, semiquantitative; format: cell-based; settings: H69, 24 h, β-caryophyllene 50 µM, doxorubicin 20 µM
Protocol: as §1

C=C1CC/C=C(\C)CC[C@@H]2[C@@H]1CC2(C)C [β-Caryophyllene, β-caryophyllene]
Annexin V Mz-ChA-1 (semiquantitative apoptosis score) [1]: +/- (6%–10% = +/−) | reduction of G2/M phase vs. control ([2]; β-caryophyllene 50 µM): about 1.4 fold | enhancement in ROS amount compared the control [3]: 1.3 fold | effect on γH2AX levels ([4]; H69, 50 µM, 2 h and 24 h): null effects | fold more toxic after 72 h with respect to the other schedules (IC50 comparison) ([5]; Mz-ChA-1): 1.4- to 2 fold | reduction of cell viability ([5]; Mz-ChA-1, 50 μM): lower than 20% | inhibition of cell viability vs. control ([5]; Mz-ChA-1, concentrations higher than 50 μM, 24 h and 72 h): about 20% | nontoxic up to (concentration) ([5]; Mz-ChA-1, metronomic schedule): up to 125 μM | inhibition of viable cells (CF fluorescence) [6]: about 1.2 fold | lowering of basal apoptosis (annexin-V-Cy3) ([6]; H69, both time exposures, β-caryophyllene 50 µM): 1.2 fold | effect on phospho(Tyr705)-STAT3 expression ([7]; H69, β-caryophyllene 50 µM alone): did not affected the protein expression | Annexin V H69 (semiquantitative apoptosis score) [8]: – (0%–5% = negative)

COc1cccc2c1C(=O)c1c(O)c3c(c(O)c1C2=O)C[C@@](O)(C(=O)CO)C[C@@H]3O[C@H]1C[C@H](N)[C@H](O)[C@H](C)O1 [Doxorubicin, doxorubicin hydrochloride]
Annexin V Mz-ChA-1 (semiquantitative apoptosis score) [1]: + (11%–30% = +) | increase of cell accumulation in S-phase compared the control ([2]; doxorubicin 20 µM): ~1.8 fold | reduction of G0/G1 phase ([2]; doxorubicin 20 µM): ≥ 30 fold | enhancement in ROS amount compared the control [3]: at least 3 fold | increase of γH2AX with respect to control ([4]; H69, 2 h): ~40 fold | increase of γH2AX with respect to control ([4]; H69, 24 h): ~200 fold | cytotoxicity increase produced by the double repeated exposure [5]: 10% | IC50 lowering, double repeated 2 h metronomic vs 24 h protocol ([5]; Mz-ChA-1): ~2.4 fold | IC50 lowering, single 2 h metronomic vs 24 h protocol ([5]; Mz-ChA-1): about 1.4 fold | IC50 reduction, double short exposure vs single 2 h treatment ([5]; Mz-ChA-1): 1.7 fold | anticancer power under metronomic conditions lower than after 72 h ([5]; Mz-ChA-1): 3- to 5 fold | potency increase, 72 h with respect to 24 h (IC50 comparison) ([5]; Mz-ChA-1): at least 7 fold | inhibition of cell viability ([5]; Mz-ChA-1, 1 µM, 72 h): about 20% | inhibition of cell viability ([5]; Mz-ChA-1, 10 μM, 2 h exposure protocol): ≥ 35% | inhibition of cell viability ([5]; Mz-ChA-1, 10 µM, 24 h): about 20% | inhibition of cell viability ([5]; Mz-ChA-1, 10 µM, 72 h): about 80% | maximum inhibition of cell viability ([5]; Mz-ChA-1, 100 μM, both metronomic schedules): 80% | maximum inhibition of cell viability ([5]; Mz-ChA-1, 200 µM, 24 h): about 80% | cell viability reduction vs. control ([5]; Mz-ChA-1, concentrations lower than 10 μM, 2 h exposure protocol): < 20% | inhibition of viable cells (CF fluorescence) [6]: ≤ 1.4 fold | increase of apoptotic rate ([6]; H69, 24 h, doxorubicin 20 µM): ~1.5 fold | enhancement of basal phospho(Tyr705)-STAT3 expression ([7]; H69, 2 h): ~6 fold | enhancement of basal phospho(Tyr705)-STAT3 expression ([7]; H69, 24 h): ~10 fold | Annexin V H69 (semiquantitative apoptosis score) [8]: + (11%–30% = +)
